# Data: patent EP0118750A2, “Regeneration of NAD(P) cofactor” (PHILLIPS PETROLEUM COMPANY, priority 1983, dated 1984)
# Target: T1, horse liver alcohol dehydrogenase (Equus caballus, UniProt P00327)
# T1 construct: 0.5 mL horse liver-alcohol dehydrogenase solution (Sigma-1 mg/mL); purchased Sigma; host or cells: horse liver
# Assay: Dissolved oxygen decrease on adding alcohol substrates to the cofactor regeneration system (NAD, HL-ADH, acetaldehyde, alcohol oxidase)
# Assay type: biochemical
# Conditions: relative decrease in dissolved oxygen level upon addition of 0.1 mL of 2.5 vol % solution of the alcohol; phosphate buffer pH 8
# Method: The following reagents were admixed in a small beaker: • 2.7 mL aerated potassium phosphate buffer (0.05 M; pH 8) • 0.01 mL of NAD solution (10 mg/mL or 0.025 M) • 0.5 mL horse liver-alcohol dehydrogenase solution (Sigma-1 mg/mL) • 0.1 mL of 1 M acetaldehyde • 0.1 mL of saturated alcohol oxidase (~ 10 mg/mL, prepared as described in example I)
# A dissolved oxygen probe, connected to an electronic signal differentiator, was placed in the above prepared solution. The relative decrease in dissolved oxygen level (ADO) was monitored upon addition of 0.1 mL of 2.5 vol % solutions of several alcohols: […]
# T1 sequence (P00327 2-375 limits assumed): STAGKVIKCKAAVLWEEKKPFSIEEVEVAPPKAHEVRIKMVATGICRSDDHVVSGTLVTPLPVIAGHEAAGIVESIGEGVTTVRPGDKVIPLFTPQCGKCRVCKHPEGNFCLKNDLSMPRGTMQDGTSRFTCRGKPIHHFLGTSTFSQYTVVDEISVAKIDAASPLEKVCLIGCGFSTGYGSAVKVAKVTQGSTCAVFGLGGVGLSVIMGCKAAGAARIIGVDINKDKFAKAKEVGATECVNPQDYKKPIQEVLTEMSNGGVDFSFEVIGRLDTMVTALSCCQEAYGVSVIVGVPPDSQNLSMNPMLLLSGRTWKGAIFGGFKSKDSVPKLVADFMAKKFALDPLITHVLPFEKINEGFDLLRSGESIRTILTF
row,SMILES,ΔDO
1,"OC=CCCO [3-buten-1,4-diol]",Yes
2,C=CCCCCCCCCO [9-decen-1-ol],Yes
3,CC(C)(C)O [tertiary butanol],No
4,CCC(C)O (stereo not shown) [2-butanol],Yes
5,C=CC(C)O (stereo not shown) [3-buten-2-ol],Yes
6,"OCCCCO [1,4-butanediol]",Yes
7,OC1CCCCC1 [cyclohexanol],Yes
